Earlier results in patent US10238615B2 (Bracco S.P.A., priority 2011, dated 2019).

How the values were obtained:
[1] = system: euthyroid rats

- Plasma level of total T3 obtained by standard therapy (20 μg T3): 196.6 ng/dL
- Time of peak level in serum (synthetic T3 once administered): 2 to 3 h
- Time to complete clearance from blood (synthetic T3 once administered): 12 to 24 h
Compound: N[C@@H](Cc1cc(I)c(Oc2ccc(O)c(I)c2)c(I)c1)C(=O)O [Example T3, 3,5,3′-triiodothyronine]
- Serum levels of thyreotropic hormone (TSH) [1]: significant reduction
